In patent US20090099167A1, “Organic compounds” (Novartis Institutes for Biomedical Research, priority 2004, published 2009):

Tests used:
c-Abl kinase = target: T1, c-Abl kinase (Homo sapiens, UniProt P00519); test: c-Abl protein-tyrosine kinase filter binding assay; format: biochemical; details: Table 5; read-out: C-abl, IC50 class
T1 construct: The His-tagged kinase domain of c-Abl is cloned and expressed in the baculovirus/Sf9 system; His; made in house; host or cells: Sf9 (baculovirus)
T1 sequence (P00519 242-493 limits assumed): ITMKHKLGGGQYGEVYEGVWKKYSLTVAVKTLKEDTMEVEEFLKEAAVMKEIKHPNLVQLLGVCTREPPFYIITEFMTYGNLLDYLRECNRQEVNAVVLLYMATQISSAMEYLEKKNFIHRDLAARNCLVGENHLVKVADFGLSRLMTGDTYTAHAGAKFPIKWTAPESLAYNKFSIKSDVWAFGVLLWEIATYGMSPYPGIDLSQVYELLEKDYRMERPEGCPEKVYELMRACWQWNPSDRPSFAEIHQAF
Outline: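 His-tagged c-Abl kinase domain (37 kD, Sf9-expressed) with 30 μg/mL poly-AEKY and [γ-33P]-ATP (5 μM ATP) in 20 mM Tris.HCl pH 7.5, 10 mM MgCl2, 10 μM Na3VO4, 1 mM DTT, 1% DMSO. EDTA-stopped reactions captured on PVDF membranes, washed with 0.5% H3PO4, and scintillation-counted.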

human IGF-IR = target: T2, human IGF-IR (Homo sapiens, UniProt P08069); test: IGF-1R tyrosine kinase assay, GST-IGF-1R; format: biochemical; details: Table 5; read-out: IGF-1R, IC50 class
T2 construct: expresses the amino acid region 950-1337 of the mature peptide cytoplasmic domain of the human IGF-IR; made in house; host or cells: baculovirus (Bac-to-Bac)
T2 sequence (P08069 980-1367): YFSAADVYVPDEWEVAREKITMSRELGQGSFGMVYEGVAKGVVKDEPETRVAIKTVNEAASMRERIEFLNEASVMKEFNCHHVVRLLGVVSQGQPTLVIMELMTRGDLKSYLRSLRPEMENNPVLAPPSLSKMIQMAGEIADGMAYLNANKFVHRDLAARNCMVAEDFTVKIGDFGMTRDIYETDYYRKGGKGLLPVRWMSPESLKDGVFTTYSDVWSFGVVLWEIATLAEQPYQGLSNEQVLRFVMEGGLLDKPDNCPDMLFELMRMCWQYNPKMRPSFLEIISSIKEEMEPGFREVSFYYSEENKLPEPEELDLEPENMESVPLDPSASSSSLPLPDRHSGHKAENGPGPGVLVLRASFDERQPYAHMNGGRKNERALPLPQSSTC
Text: The inhibition of IGF-1R and Ins-R can be determined as follows: The baculovirus donor vector pfbgx3IGFIRcd is used to generate a recombinant baculovirus that expresses the amino acid region 950-1337 of the mature peptide cytoplasmic domain of the human IGF-IR. To generate the cDNA fragment encoding the amino acid region 919-1343 of the intra-cytoplasmic kinase domain of the human insulin receptor, pC5hInsR is used. The fragments of the human IGF-IR and Ins-R are cloned, expressed and small-scale purified as a factor Xa-cleavable glutathione-S-transferase (GST)-fusion protein using the Bac-to-Bac™ system (GIBCO BRL) of recombinant baculovirus generation. Virus containing media is collected from the transfected cell culture and used for infection to increase its titer. Virus containing media obtained after two rounds of infection is used for large-scale protein expression. Cell extracts are prepared and loaded onto a glutathione-Sepharose (Pharmacia) column. After washing, the GST-tagged proteins are then eluted with a glutathione-containing buffer. Purified protein is stored at −70° C. in elution buffer. Tyrosine protein kinase assays with purified GST-IGF-1R and GST-ins-R are carried in a final volume of 30 μl containing 20 mM Tris-HCl, pH 7.6, 10 mM MgCl2, 0.01 mM Na3VO4, 1% DMSO, 1 mM DTT, 3 μg/ml poly(Glu,Tyr) 4:1 and 10 μM ATP (γ-[^33P]-ATP 0.1 μCi). The assay is performed in 96-well plates at ambient temperature for 20 min and terminated by addition of 25 μl 0.05 M EDTA pH 7.0. An aliquot of 40 μl is spotted with a multichannel dispenser on Whatman P81 membranes mounted in a Millipore Microtiter filter manifold connected to a low vacuum source. After elimination of liquid, the membrane is transferred to a sequence of 4 washing baths containing 0.5% H3PO4 and one with EtOH (shaking incubation for 10 min each), dried, mounted onto a Hewlett Packard TopCount manifold added 10 μl Microscint® and counted. Compounds of formula (I) show up to 90% inhibition of Ins-R at 10,000 nM, preferably between 60-90% inhibition. The inhibition of Tek can be determined as follows: The procedure of the expression, purification and assay these kinases has been described. Fabbro et al., Pharmacol. Ther. 82(2-3) 293-301 (1999). In brief, the glutathione S-transferase (GST) gene from the pAcG1 vector (Pharmingen) is excised with EcoRV and EcoRI and inserted into the cloning site of the Fast-Bac baculoviral vector (GIBCO) creating a 5530 bp vector with N-terminal cloning sites derived from the pAcG1 fusion vector (FBG0). The C-terminal cloning site may be any cloning site (from the Fast-Bac vector) downstream of the N-terminal cloning site used. N-terminally GST-fused (pAcG1, Pharmingen) KDR, Flt-1, Flk-1, Tek and PDGFR-β kinase domains are obtained from ProQinase, Freiburg, Germany. Tek is recloned into the FBG1 vector by EcoRI excision and ligation into EcoRI digested FBG1 (FBG1-Tek). The coding sequences for the whole cytoplasmic domain of c-Kit (aa 544-976) and c-Fms (aa 538-972) are amplified by PCR from human uterus and from human bone marrow cDNA libraries (Clontech), respectively. The amplified DNA fragments are fused to GST by cloning them into FBG1 as BamHI-EcoRI insertions, to yield FBG1-c-Kit and FBG1-c-Fms. Tek is recloned into the FBG0 transfer vector by EcoRI excision and ligation into EcoRI digested FBG0 (FBG-Tie2/Tek). FGFR-1 and c-met kinase domains are obtained by PCR from human A431 cells. N-terminal primers contain an overhanging EcoRI site, while C-terminal primers contain a XhoI site to aid cloning into the transfer vectors. After digestion of both the PCR fragments and FBG0 the cleavage products are gel-purified and ligated together to form the kinase constructs (FBG-Met, FBG-FGFR-1).

c-Src kinase = c-Src kinase (Homo sapiens, UniProt P12931); test: c-Src kinase inhibition; format: biochemical; details: Table 5; read-out: c-scr, IC50 class
Sequence of c-Src kinase (P12931 whole entry): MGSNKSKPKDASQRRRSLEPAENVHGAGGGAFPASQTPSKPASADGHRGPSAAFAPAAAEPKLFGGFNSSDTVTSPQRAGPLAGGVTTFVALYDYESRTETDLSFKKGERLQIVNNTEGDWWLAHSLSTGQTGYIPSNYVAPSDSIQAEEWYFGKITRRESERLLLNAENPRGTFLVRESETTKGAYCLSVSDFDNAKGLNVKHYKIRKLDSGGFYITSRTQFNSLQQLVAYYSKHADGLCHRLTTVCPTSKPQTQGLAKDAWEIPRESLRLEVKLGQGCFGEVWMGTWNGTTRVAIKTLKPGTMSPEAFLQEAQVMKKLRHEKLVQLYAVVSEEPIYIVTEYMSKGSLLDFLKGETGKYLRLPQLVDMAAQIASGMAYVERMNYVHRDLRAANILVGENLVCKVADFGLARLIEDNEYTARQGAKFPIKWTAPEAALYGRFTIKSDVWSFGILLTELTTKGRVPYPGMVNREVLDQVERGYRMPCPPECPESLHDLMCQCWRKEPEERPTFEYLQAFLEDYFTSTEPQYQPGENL
Text: An appropriate assay is described in Andrejauskas-Buchdunger et al., Cancer Res. 52, 5353-8 (1992).

| SMILES | IC50 (c-Abl kinase) [nM] | melting point [°C] | IC50 (human IGF-IR) [µM] | IC50 (c-Src kinase) [nM] |
| --- | --- | --- | --- | --- |
| Cc1nc2c(-c3cccc(N4CCN(CCO)CC4)c3)cnn2c(N)c1-c1cccc(Cl)c1 [Example 90, 2-(4-{3-[7-Amino-6-(3-chloro-phenyl)-5-methyl-pyrazolo[1,5-a]pyrimidin-3-yl]-phenyl}-piperazin-1-yl)-ethanol] | < 1000 | 108 to 116 | > 10 | < 1000 |
| CN1CCN(c2cccc(-c3cnn4c(N)c(Cc5ccccc5)cnc34)c2)CC1 [Example 91, 6-Benzyl-3-[3-(4-methyl-piperazin-1-yl)-phenyl]-pyrazolo[1,5-a]pyrimidin-7-ylamine] | < 1000 | 72 to 75 | > 10 | > 10000 |
| COc1ccc(-c2cnn3c(N)c(-c4cccc(Cl)c4)c(C)nc23)cc1OC [Example 93, 6-(3-Chloro-phenyl)-3-(3,4-dimethoxy-phenyl)-5-methyl-pyrazolo[1,5-a]pyrimidin-7-ylamine] | < 1000 | 223 to 226 | > 10 | < 1000 |
| COc1ccc(-c2cnn3c(N)c(-c4ccc(F)c(Cl)c4)c(C)nc23)cc1OC [Example 94, 6-(3-Chloro-4-fluoro-phenyl)-3-(3,4-dimethoxy-phenyl)-5-methyl-pyrazolo[1,5-a]pyrimidin-7-ylamine] | > 10000 | 235 to 238 | > 10 | < 1000 |
| COc1ccc(-c2cnn3c(N)c(-c4ccc(F)c(Cl)c4)c(C)nc23)cc1 [Example 95, 6-(3-Chloro-4-fluoro-phenyl)-3-(4-methoxy-phenyl)-5-methyl-pyrazolo[1,5-a]pyrimidin-7-ylamine] | < 1000 | 224 to 227 | > 10 | 1000 to 10000 |
| COc1ccc(-c2cnn3c(N)c(-c4ccc(F)cc4)c(C)nc23)cc1 [Example 96, 6-(4-Fluoro-phenyl)-3-(4-methoxy-phenyl)-5-methyl-pyrazolo[1,5-a]pyrimidin-7-ylamine] | < 1000 | 243 to 244 | > 10 | < 1000 |
| Cc1nc2c(-c3cccc(N4CCN(CCO)CC4)c3)cnn2c(N)c1-c1ccc(F)cc1 [Example 97, 2-(4-{3-[7-Amino-6-(4-fluoro-phenyl)-5-methyl-pyrazolo[1,5-a]pyrimidin-3-yl]-phenyl}-piperazin-1-yl)-ethanol] | < 1000 | 209 to 212 | > 10 | < 1000 |
| Cc1nc2c(-c3cccc(N4CCN(C)CC4)c3)cnn2c(N)c1-c1ccc(F)c(F)c1 [Example 98, 6-(3,4-Difluoro-phenyl)-5-methyl-3-[3-(4-methyl-piperazin-1-yl)-phenyl]-pyrazolo[1,5-a]pyrimidin-7-ylamine] | < 1000 | 216 to 219 | > 10 | < 1000 |
| COc1ccc(-c2cnn3c(N)c(-c4ccc(F)c(F)c4)c(C)nc23)cc1OC [Example 99, 6-(3,4-Difluoro-phenyl)-3-(3,4-dimethoxy-phenyl)-5-methyl-pyrazolo[1,5-a]pyrimidin-7-ylamine] | < 1000 | 230 to 235 | > 10 | < 1000 |
| Cc1nc2c(-c3cccc(N4CCN(CCO)CC4)c3)cnn2c(N)c1-c1ccc(F)c(Cl)c1 [Example 100, 2-(4-{3-[7-Amino-6-(3-chloro-4-fluoro-phenyl)-5-methyl-pyrazolo[1,5-a]pyrimidin-3-yl]-phenyl}-piperazin-1-yl)-ethanol] | < 1000 | 104 to 107 | > 10 | < 1000 |

Further lines, results first:

| IC50 (c-Abl kinase) [nM] | melting point [°C] | IC50 (human IGF-IR) [µM] | IC50 (c-Src kinase) [nM] | SMILES |
| --- | --- | --- | --- | --- |
| < 1000 | 264 to 265 | > 10 | < 1000 | Cc1nc2c(-c3ccc(N4CCN(C)CC4)cc3)cnn2c(N)c1-c1ccc(F)c(Cl)c1 [Example 83, 6-(3-Chloro-4-fluoro-phenyl)-5-methyl-3-[4-(4-methyl-piperazin-1-yl)-phenyl]-pyrazolo[1,5-a]pyrimidin-7-ylamine] |
| < 1000 | 107 to 113 | > 10 | < 1000 | Cc1nc2c(-c3cccc(N4CCN(C)CC4)c3)cnn2c(N)c1-c1cccc(Br)c1 [Example 84, 6-(3-Bromo-phenyl)-5-methyl-3-[3-(4-methyl-piperazin-1-yl)-phenyl]-pyrazolo[1,5-a]pyrimidin-7-ylamine] |
| < 1000 | 170 to 171 | > 10 | < 1000 | CN1CCN(c2cccc(-c3cnn4c(N)c(Cc5cccc(Br)c5)cnc34)c2)CC1 [Example 85, 6-(3-Bromo-benzyl)-3-[3-(4-methyl-piperazin-1-yl)-phenyl]pyrazolo[1,5-a]pyrimidin-7-ylamine] |
| < 1000 | 195.3 to 197.2 | > 10 | < 1000 | CN1CCN(c2cccc(-c3cnn4c(N)c(-c5cccc(Br)c5)cnc34)c2)CC1 [Example 86, 6-(3-Bromo-phenyl)-3-[3-(4-methyl-piperazin-1-yl)-phenyl]-pyrazolo[1,5-a]pyrimidin-7-ylamine] |
| < 1000 | 165 to 167 | > 10 | < 1000 | Cc1nc2c(-c3cccc(N4CCOCC4)c3)cnn2c(N)c1-c1cccc(Cl)c1 [Example 87, 6-(3-Chloro-phenyl)-5-methyl-3-(3-morpholin-4-yl-phenyl)-pyrazolo[1,5-a]pyrimidin-7-ylamine] |
| < 1000 | 171 to 172 | > 10 | < 1000 | COc1ccc(-c2cnn3c(N)c(-c4cccc(Cl)c4)c(C)nc23)cc1 [Example 88, 6-(3-Chloro-phenyl)-3-(4-methoxy-phenyl)-5-methyl-pyrazolo[1,5-a]pyrimidin-7-ylamine] |
| < 1000 | 165 to 167 | > 10 | < 1000 | Cc1nc2c(-c3cccc(N4C[C@@H](C)O[C@@H](C)C4)c3)cnn2c(N)c1-c1cccc(Cl)c1 [Example 89, 6-(3-Chloro-phenyl)-3-[3-((2R,6S)-2,6-dimethyl-morpholin-4-yl)-phenyl]-5-methyl-pyrazolo[1,5-a]pyrimidin-7-ylamine] |
